Assay results as given in patent US20050074879A1, “Antisense oligonucleotide modulation of STAT3 expression” (priority 2000, published 2005).

How the values were obtained:
Assay type in all cases: cell-based
Human STAT3 mRNA [1] = assay: Human STAT3 mRNA dose response in A549 cells, real-time PCR with PPS 199 (Table 20); conditions: 16 hours, LIPOFECTIN, − decrease, + increase relative to untreated control cells
Description: An additional dose-response experiment was preformed in A549 cells. A549 cells were treated with 18.75, 37.5, 75, or 150 nM of oligonucleotide mixed with 3 ug/mL LIPOFECTIN per 100 nM oligonucleotide as described by other examples herein. Control oligonucleotides used were ISIS 129686 (SEQ ID NO: 394) and ISIS 129690 (SEQ ID NO: 393). Untreated cells served as controls. Following 16 hours of treatment, RNA was prepared from cells for subsequent real-time PCR analysis.
Human STAT3 mRNA expression levels were quantitated by real-time PCR using primer probe set PPS 199 and gene target quantities were normalized using Ribogreen as described in other examples herein. A “−” or “+” designation in the dose response results indicates a decrease or increase of STAT 3 mRNA expression, respectively, relative to untreated control cells.

Human STAT3 mRNA [2] = assay: STAT3 mRNA in A549 cells treated with dsRNAs (duplex antisense compounds), real-time PCR PPS 199 (Table 22); conditions: treated 4 hours, harvested 16 hours later, − decrease, + increase vs untreated control
Description: When cells reached 80% confluency, they are treated with duplexed antisense compounds of the invention. For cells grown in 96-well plates, wells are washed once with […] OPTI-MEM-1 reduced-serum medium (Gibco BRL) and then treated with 130 μL of OPTI-MEM-1 containing 12 μg/mL LIPOFECTIN (Gibco BRL) and the desired duplex antisense compound at a final concentration of 200 nM (a ratio of 6 μg/mL LIPOFECTIN per 100 nM duplex antisense compound). After 5 hours of treatment, the medium is replaced with fresh medium. Cells are harvested 16 hours after treatment, at which time RNA is isolated and target reduction measured by RT-PCR.
The compounds in Table 21 were tested for their effects on human STAT3 expression in A549 cells. ISIS 330249 targets the same site as the antisense oligonucleotid ISIS 106734 (SEQ ID NO: 45) and ISIS 330247 targets the same site as the antisense oligonucleotide ISIS 113176 (SEQ ID NO: 115); thus, ISIS 106734 and ISIS 113176 were also tested. A549 cells were treated with oligonucleotide mixed with LIPOFECTIN (Invitrogen Corporation, Carlsbad, Calif.) as described herein. The control oligonucleotide used was ISIS 129698 ([…], SEQ ID NO: 402). Cells were treated with oligonucleotide for 4 hours and harvested an additional 16 hours later. Untreated cells served as a control.
Human STAT3 mRNA expression levels were quantitated by real-time PCR using primer probe set PPS 199 and gene target quantities were normalized using Ribogreen as described in other examples herein. A “−” or “+” designation indicates a decrease or increase of STAT 3 mRNA expression, respectively, relative to untreated control cells. Where present, “N.D.” indicates not determined.

Human STAT3 mRNA [3] = assay: Human STAT3 mRNA dose response in T-24 cells, real-time PCR with PPS 199 (Table 18); conditions: 16 hours, − decrease, + increase relative to untreated control
Text: The transitional cell bladder carcinoma cell line T-24 was obtained from the American Type Culture Collection (ATCC) (Manassas, Va.). T-24 cells were routinely cultured in complete McCoy's 5A basal media (Gibco/Life Technologies, Gaithersburg, Md.) supplemented with 10% fetal calf serum (Gibco/Life Technologies, Gaithersburg, Md.), penicillin 100 units per mL, and streptomycin 100 micrograms per mL (Gibco/Life Technologies, Gaithersburg, Md.). Cells were routinely passaged by trypsinization and dilution when they reached 90% confluence. Cells were seeded into 96-well plates (Falcon-Primaria #3872) at a density of 7000 cells/well for use in RT-PCR analysis.
Control oligonucleotides used were ISIS 129695 ([…], SEQ ID NO: 391), ISIS 129694 ([…] SEQ ID NO: 392), ISIS 129690 ([…] SEQ ID NO: 393), ISIS 129686 ([…] SEQ ID NO: 394), ISIS 116847 ([…], SEQ ID NO: 395) and ISIS 113529 ([…] SEQ ID NO: 396). These are universal scrambled control oligonucleotides.
(§1) T-24 cells were treated with 18.75, 37.5, 75, or 150 nM of oligonucleotide mixed with 3 ug/mL LIPOFECTIN per 100 nM oligonucleotide as described by other examples herein. Untreated cells served as controls. Following 16 hours of treatment, RNA was prepared from cells for subsequent real-time PCR analysis.
Human STAT3 mRNA expression levels were quantitated by real-time PCR using primer probe set PPS 199 and gene target quantities were normalized using Ribogreen as described in other examples herein. A “−” or “+” designation indicates a decrease or increase of STAT 3 mRNA expression, respectively, relative to untreated control cells.

Human STAT3 mRNA [4] = assay: Human STAT3 mRNA dose response in T-24 cells, real-time PCR with PPS 2033 (Table 19); conditions: 16 hours, − decrease, + increase relative to untreated control
Description: The dose-response was repeated in T-24 cells and gene target quantities were measured using a different primer-probe set, called PPS 2033 herein. PPS 2033 comprises probes and primers to human STAT3 were designed to hybridize to a human STAT3 sequence, using published sequence information (incorporated herein as SEQ ID NO: XXX). For PPS 2033 the PCR primers were: forward primer: GAGGCCCGCCCAACA (SEQ ID NO: 397) reverse primer: […] (SEQ ID NO: 398) and the PCR probe was: FAM-CTGCCTAGATCGGC-TAMRA (SEQ ID NO: 399) where FAM is the fluorescent reporter dye and TAMRA is the quencher dye. Gene target quantities obtained by real time RT-PCR are normalized by quantifying total RNA using RiboGreen™ (Molecular Probes, Inc. Eugene, Oreg.). Control oligonucleotides used were ISIS 129695 (SEQ ID NO: 391), ISIS 129694 (SEQ ID NO: 392), ISIS 129690 (SEQ ID NO: 393), ISIS 129686 (SEQ ID NO: 394), ISIS 116847 (SEQ ID NO: 395) and ISIS 113529 (SEQ ID NO: 396).
as §1
Human STAT3 mRNA expression levels were quantitated by real-time PCR using primer probe set PPS 2033 and gene target quantities were normalized using Ribogreen as described in other examples herein. A “−” or “+” designation indicates a decrease or increase of STAT 3 mRNA expression, respectively, relative to untreated control cells.

Mouse B16 melanoma cells = assay: Cell number of B16 melanoma cells after antisense treatment; conditions: 24 hours after transfection
Description: Mouse B16 melanoma cells were grown in RPMI 1640 (Life Technologies, Inc., Grand Island, N.Y.) medium supplemented with 10% fetal bovine serum, 2 mM L-glutamine, 1 mM sodium pyruvate, 1% MEM nonessential amino acids and 100 IU/ml penicillin/streptomycin.
Cells were treated with ISIS 17152, targeted to mouse STAT3, or the 3-base mismatch control, ISIS 28084 ([…]; SEQ ID NO: 151). Cells were transfected with oligonucleotide using LipofectAMINE PLUSJ reagent (GibcoBRL). Oligonucleotide was pre-complexed with LipofectAMINE PLUSJ by adding the oligonucleotide to 100 μl serum-free RPMI 1640 medium, then 6 μl LipofectAMINE PLUSJ reagent was added, the sample was mixed well and incubated for 15 minutes at room temperature. An additional 4 μl of LipofectAMINE PLUSJ reagent was diluted to 100 μl in serum-free RPMI. This diluted LipofectAMINE PLUSJ was mixed with the pre-complexed oligonucleotide/LipofectAMINE PLUSJ mixture and incubated for 15 minutes at room temperature. 800 μl of serum-free RPMI 1640 was added, and the resulting oligonucleotide-LipofectAMINE PLUSJ-medium mixture (approximately 1 ml) was added to cells in a 6-well plate. After 3 hours incubation, 1 ml of RPMI 1640 supplemened with 20% fetal bovine serum was added. Oligonucleotide concentrations were 200 nM or 300 nM.
24 hours after transfection, cells were counted to determine the effect of antisense treatment on cell death. Cells were harvested at 24 hours post transfection for western blot analysis and at 48 hours post-transfection for Annexin-V staining for apoptosis.

| Substance | Percent change of STAT3 expression in A549 cells using PPS 199 (Human STAT3 mRNA [1]; 18.75 nM oligonucleotide) | Percent change of STAT3 expression in A549 cells using PPS 199 (Human STAT3 mRNA [1]; 37.5 nM oligonucleotide) | Percent change of STAT3 expression in A549 cells using PPS 199 (Human STAT3 mRNA [1]; 75 nM oligonucleotide) | Percent change of STAT3 expression in A549 cells using PPS 199 (Human STAT3 mRNA [1]; 150 nM oligonucleotide) | Percent change in STAT3 mRNA expression in A549 cells by duplex antisense compounds (Human STAT3 mRNA [2]; 50 nM oligonucleotide) | Percent change in STAT3 mRNA expression in A549 cells by duplex antisense compounds (Human STAT3 mRNA [2]; 100 nM oligonucleotide) | Percent change in STAT3 mRNA expression in A549 cells by duplex antisense compounds (Human STAT3 mRNA [2]; 200 nM oligonucleotide) | Percent change in STAT3 mRNA expression in A549 cells by duplex antisense compounds (Human STAT3 mRNA [2]; 400 nM oligonucleotide) | Percent change of STAT3 expression using PPS 199 (Human STAT3 mRNA [3]; 18.75 nM oligonucleotide) | Percent change of STAT3 expression using PPS 199 (Human STAT3 mRNA [3]; 37.5 nM oligonucleotide) | Percent change of STAT3 expression using PPS 199 (Human STAT3 mRNA [3]; 75 nM oligonucleotide) | Percent change of STAT3 expression using PPS 199 (Human STAT3 mRNA [3]; 150 nM oligonucleotide) | Percent change of STAT3 expression using PPS 2033 (Human STAT3 mRNA [4]; 18.75 nM oligonucleotide) | Percent change of STAT3 expression using PPS 2033 (Human STAT3 mRNA [4]; 37.5 nM oligonucleotide) | Percent change of STAT3 expression using PPS 2033 (Human STAT3 mRNA [4]; 75 nM oligonucleotide) | Percent change of STAT3 expression using PPS 2033 (Human STAT3 mRNA [4]; 150 nM oligonucleotide) | also measured |
| --- | --- | --- | --- | --- | --- | --- | --- | --- | --- | --- | --- | --- | --- | --- | --- | --- | --- |
| 106734 (CATTCTTGGGATTGTTGGTC; all C 5-methyl, all phosphorothioate, sugars by position not given here; further chemistry not fully specified) [compound 106734] | −2% | −16% | −56% | −73% | −40% | −56% | −67% | −77% | – | – | – | – | – | – | – | – | Percent change in STAT3 mRNA expression in A549 cells by duplex antisense compounds (Human STAT3 mRNA [2]; 12.5 nM oligonucleotide): −5%; Percent change in STAT3 mRNA expression in A549 cells by duplex antisense compounds (Human STAT3 mRNA [2]; 25 nM oligonucleotide): −5% |
| 129686 (antisense CGTTATTAACCTCCGTTGAA; all phosphorothioate, sugars by position and methylation of C not given here; 2'-MOE wings and deoxy gap) [compound 129686] | +27% | +23% | +22% | +19% | – | – | – | – | +2% | +1% | −5% | +1% | +20% | +16% | +25% | +9% | – |
| 129690 (antisense TTAGAATACGTCGCGTTATG; all phosphorothioate, sugars by position and methylation of C not given here; 2'-MOE wings and deoxy gap) [compound 129690] | +30% | +27% | +16% | +27% | – | – | – | – | +2% | +7% | +6% | +8% | +4% | +10% | +8% | +11% | – |
| 129698 (antisense TTTGATCGAGGTTAGCCGTG; listed as DNA, chemistry not given here) [compound 129698] | – | – | – | – | +41% | +42% | +1% | +22% | – | – | – | – | – | – | – | – | – |
| AAAAAGAGGCCTGATTGCCC (listed as DNA, chemistry not given here) [ISIS 28084, reference compound] | – | – | – | – | – | – | – | – | – | – | – | – | – | – | – | – | cell number (Mouse B16 melanoma cells; 200 nM, Expt 1): 10.2 × 10^5; cell number (Mouse B16 melanoma cells; 200 nM, Expt 2): 5.0 × 10^5; cell number (Mouse B16 melanoma cells; 200 nM, Expt 3): 3.5 × 10^5; cell number (Mouse B16 melanoma cells; 300 nM, Expt 2): 9.1 × 10^5; cell number (Mouse B16 melanoma cells; 300 nM, Expt 3): 3.3 × 10^5 |
